The test system of experiment [1] is GBM patients. Particulars: two recent phase III trials; cited from earlier work.
The subject of experiment [2] is GBM patients. Nature of the experiment: Kaplan-Meier overall survival of GBM patients treated with or without bevacizumab, stratified by ZEB1 copy number (study set J / data set of 78 GBM patients). Format: in vivo, human. An excerpt: Data are expressed as mean±s.e.m. Kaplan-Meier curves and p values were generated using Prism 6.0v. Two-tailed student's t-test, were used. A P value of *<0.05 was considered significant.

Another experiment deals with glioblastoma patients. Nature of the experiment: Overall survival of 403 glioblastoma patients treated with or without bevacizumab, stratified by ZEB1 expression. Format: in vivo, human. Particulars: general patient population. The text has this:
Studies reported OS results by ZEB1 status and permutations of ZEB1/IDH1 status via (1) Kaplan-Meier curves, (2) hazard ratios (HRs) and corresponding 95% confidence intervals, (3) c-statistic. We translated all reports of survival outcomes to the number of events and the survival time. Patients not experiencing event were censored at the last follow-up date.
Data are presented as frequency (percentage, %) for categorical variables and median (IQR, interquartile range) for continuous variables. ZEB1 and IDH1 mRNA values were log base 2 transformed. Univariate associations between variables were examined with Wilcoxon rank-sum test, chi-square test, or Spearman rank correlation, where appropriate. A Cox proportional hazards regression model was employed in univariate and multivariable analyses to identify variables that predict OS. The proportional hazards assumption was evaluated with Schoenfeld residuals and a Kolmogorov-type supremum test. Hazard ratios (HRs) were expressed as an increase from the 25th to 75th percentile in continuous variables. Multivariable analysis was further carried out with the Cox proportional hazards model to examine whether an improvement in predictive discriminatory power was obtained when ZEB1 was added to the model containing the known marker, IDH1 and age. […]

For experiment [3], the system named is GBM patients. Nature of the experiment: Survival of temozolomide-treated GBM patients stratified by ZEB1 copy number and MGMT expression. Format: in vivo, human. The settings on record: temozolomide treatment. An excerpt: Given our observations that ZEB1 and CD133 expression imparts GSC resistance to differentiation and impacts patient survival, we considered if ZEB1 loss would impact response to therapy. To do this, we explored the role of 06-methylguanine-DNA methyltransferase (MGMT) which removes DNA alkylating agents and therefore hinders the effectiveness of chemotherapeutic alkylating agents including temozolomide.^28 The MGMT promoter region has been shown when hypermethylated to suppress MGMT activity conferring chemosensitivity resulting in favorable prognosis compared to the hypomethylated state of MGMT which results in poor patient outcomes. MGMT expression is inversely correlated to its methylated state. We sought to determine the effect of ZEB1 loss on the clinical impact of hypermethylation of MGMT in the presence of temozolomide.
MGMT expression is inversely correlated to its methylated state. We sought to determine the effect of ZEB1 deletion on the clinical impact of hypermethylation of MGMT in the presence of temozolomide.

In experiment [4] the test system is GSCs. Nature of the experiment: Neurosphere formation and limiting dilution sphere-forming assay. Particulars: IFN-γ treated GSCs. In kind it is cell-based, human. On the procedure: Neural Basal A media (Invitrogen) supplemented with EGF and bFGF (R&D Systems) were used to culture primary patient derived glioma stem cells (GSCs) which were dissociated into single cells sorted for CD133 expression and plated onto 24 well plates with various seeding densities (4-100 cells/well). GSCs were incubated at 37° C. at 5% CO2 for 2 to 3 weeks. GSCs were then quantified for neurosphere formation.
Neural Basal A media (Invitrogen) supplemented with EGF and bFGF (R&D Systems) were used to culture primary patient derived GCSCs which were dissociated into single cells sorted for CD133 expression and plated onto 24 well plates with various seeding densities (4-100 cells/well). GCSCs were incubated at 37° C. at 5% CO2 for 2 to 3 weeks. GCSCs were then quantified for neurosphere formation.

The next experiment concerns GCSCs. Nature of the experiment: ZEB1 expression by qRT-PCR in GCSCs treated with IFN-γ. Format: cell-based, human. The settings on record: IFN-γ 3 days (200 ng/ml). On the procedure:
FIGS. 15A-15J depict, in accordance with various embodiments of the present invention, effect of IFN-γ on LIF and ZEB1 activation in patient derived glioma cancer stem cells (GCSCs). (FIG. 15A) GCSCs were treated with IFN-γ for 3-days and ZEB1 expression levels were determined by qRT-PCR. (FIG. 15B) The percentage of CD133^+ GCSCs in the presence and absence of IFN-γ were determined by flow cytometry. GCSCs were incubated with IFN-γ for 7-days. (FIG. 15C) The effects of IFN-γ on secondary neurosphere formation. […] (FIG. 15E) Spearman correlation between LIF and ZEB1 GBM patients (n=28), rank correlation (R) and two-tailed significance is shown. (FIG. 15F) ZEB1 binding motifs within the LIF promoter (CAGGTG, ***P<0.0001 and CAGGTA,***P<0.0001). […]
To generate GSCs that stably express short hairpin RNAs (shRNAs) that target ZEB1, we co-transfected shRNA (Origene, Rockville Md.),—that target ZEB1 into our 0827 or 0323 GSCs, with a VSV-G expression plasmid (Clontech) into the GP2-293 packaging cell line (Clontech) according to the manufacturer's instructions. […] Cells that were resistant to puromycin were characterized for ZEB1 expression by immunoblotting and subsequent cell proliferation using 5-ethynyl-2′-deoxyuridine (EdU) Click-IT assay (Life Technologies) using fluorescence activated cell sorting (FACs) analysis according to the manufacturer's instructions. […]
Background: Real-time PCR tracks product formation cycle by cycle.

Experiment [5] has as its system GSCs. The experiment can be described thus: CD133 staining of GSCs by flow cytometry (FACs). Format: cell-based, human. The settings on record: IFN-γ 7 days (100 ng/ml). As to the method: GSCs were washed with 1× PBS buffer 3 times and resuspended in 1× PBS. GSCs were fixed in 4% formaldehyde for 15 min at room temperature. Cells were washed with 1× PBS buffer and were incubated in 0.1% Triton X-100 for 5 min, washed and then incubated with FcR Blocker (Mitenyi Biotech) followed by incubation with CD133 antibody conjugated to Phycoerythrin (PE) or although not shown an isotype control was also performed (Mitenyi Biotech), protected from light for 1 hr at room temperature. Cells were washed and analyzed on a FACscan flow cytometer (BD Biosciences, San Jose, Calif.).
GSCs were washed with 1× PBS buffer 3 times and resuspended in 1× PBS. GSCs were fixed in 4% formaldehyde for 15 min at room temperature. Cells were washed with 1× PBS buffer and were incubated in 0.1% Triton X-100 for 5 min, washed and then incubated with FcR Blocker (Mitenyi Biotech) followed by incubation with CD133 antibody conjugated to Phycoerythrin (PE) or although not shown an isotype control was also performed (Miltenyi Biotech), protected from light for 1 […] at room temperature. Cells were washed and analyzed on a FACscan flow cytometer (BD Biosciences).
GCSCs were washed with 1× PBS buffer 3 times and resuspended in 1× PBS. GCSCs were fixed in 4% formaldehyde for 15 min at room temperature. […] Cells were washed and analyzed on a FACscan flow cytometer (BD Biosciences). […]
Background: In flow cytometry, cells or beads pass a laser one at a time.

The next experiment relates to LIF promoter. The experiment can be described thus: LIF luciferase reporter assay in GCSCs. In kind it is cell-based, human. The settings on record: IFN-γ 200 ng/mL 72 hrs; all constructs except −109/+10 region. As to the method: (§1) To measure transcriptional activity of LIF, 0827 GSCs (1×10^4 cells per transfection, three replicates per condition) were transiently transfected with one of several deletion LIF luciferase reporter plasmids (1 ug; Switchgear) with the use of X-treme gene HP DNA (Roche), seeded in six-well plates (1×10^4 cell per well), and incubated for 48 hrs. IFN-γ cytokine (200 ng/mL) was added to the cultures and the cells were incubated for 72 hrs. The cells were harvested and the luciferase activity was measured with the use of a GloMax 20/20 Luminometer (Promega, Madison, Wis.). These experiments were carried out in triplicate on three different occasions.
as §1, with “GCSCs” for “GSCs”, “IFN-6” for “IFN-γ”, “occasions. […]” for “occasions.”
In general terms: In a reporter assay the amount or activity of a reporter protein is the signal.

Entries after “also recorded” stand apart in the source; their conditions may differ.

As for bevacizumab, in the experiment with GBM patients [1], the “survival advantage in GBM patients” value is given as “no survival advantage”. Moreover, the “effect on patient survival” value is on record as “significant survival benefit; also recorded: increase in survival” with GBM patients [2] (ZEB1 deleted patients); “no change in survival; also recorded: no effect” in the experiment on GBM patients [2] (ZEB1 intact / ZEB1 wt patients); “did little to alter patient survival” in the experiment on GBM patients [2] (general patient population, independent data set of 78 GBM patients); “did little to alter patient survival” in the experiment on glioblastoma patients.

Take `Cn1nnc2c(C(N)=O)ncn2c1=O` [temozolomide]: the “hazard ratio, patient survival, ZEB1 deletion vs wildtype ZEB1” value amounted to 1.59 with GBM patients [3] (high MGMT expression (n=121)) and 1.56 with GBM patients [3] (low MGMT expression (n=115)).

B1: IFN-γ: proinflammatory cytokine interferon gamma (eBioscience) (protein, UniProt P01579 24-161, looked up)
Interferon gamma: QDPYVKEAENLKKYFNAGHSDVADNGTLFLGILKNWKEESDRKIMQSQIVSFYFKLFKNFKDDQSIQKSVETIKEDMNVKFFNSNKKKRDDFEKLTNYSVTDLNVQRKAIHELIQVMAELSPAAKTGKRKRSQMLFRG
For the molecule B1, the secondary neurosphere formation result with GSCs [4] is on record as “decreased”. Also, the “self-renewal capabilities vs untreated” value with GSCs [4] (limiting dilution) is “decreased”. Further, the “ZEB1 induction (expression) vs untreated” value with GCSCs is reported as “significant increase; also recorded: induced”. Moreover, the CD133 expression entry with GSCs [5] was “decreased”. Also, the “LIF transcriptional activity (luciferase deletion constructs)” value in the experiment on LIF promoter is listed as “suppressive effect”.

The record behind these values is US9915659B2, “Systems and methods for prognosticating brain tumors” (Cedars-Sinai Medical Center, priority 2013, dated 2018).
